{
  "source": "ChEMBL document CHEMBL4371069",
  "about": "“Click chemistry for improvement in selectivity of quinazoline-based kinase inhibitors for mutant epidermal growth factor receptors” (Bioorg Med Chem Lett, 2019)",
  "key": {"[1]": {"experiment": "Selectivity index, ratio of IC50 for human N-terminal GST-tagged EGFR kinase domain (696 to end residues) expressed in baculovirus infected sf21 cells to IC50 for human N-terminal GST-tagged EGFR T790M/L858R double mutant (696 to end residues) expressed in baculovirus infected sf21 cells"}, "[2]": {"test_system": "Epidermal growth factor receptor (Homo sapiens), P00533 [L858R,T790M]", "experiment": "Potency index, ratio of afatinib IC50 to compound IC50 for inhibition of human N-terminal GST-tagged EGFR T790M/L858R double mutant (696 to end residues) expressed in baculovirus infected sf21 cells"}, "CYP3A4": {"target": "CYP3A4 (Homo sapiens, UniProt P08684)", "sequence (P08684 whole entry)": "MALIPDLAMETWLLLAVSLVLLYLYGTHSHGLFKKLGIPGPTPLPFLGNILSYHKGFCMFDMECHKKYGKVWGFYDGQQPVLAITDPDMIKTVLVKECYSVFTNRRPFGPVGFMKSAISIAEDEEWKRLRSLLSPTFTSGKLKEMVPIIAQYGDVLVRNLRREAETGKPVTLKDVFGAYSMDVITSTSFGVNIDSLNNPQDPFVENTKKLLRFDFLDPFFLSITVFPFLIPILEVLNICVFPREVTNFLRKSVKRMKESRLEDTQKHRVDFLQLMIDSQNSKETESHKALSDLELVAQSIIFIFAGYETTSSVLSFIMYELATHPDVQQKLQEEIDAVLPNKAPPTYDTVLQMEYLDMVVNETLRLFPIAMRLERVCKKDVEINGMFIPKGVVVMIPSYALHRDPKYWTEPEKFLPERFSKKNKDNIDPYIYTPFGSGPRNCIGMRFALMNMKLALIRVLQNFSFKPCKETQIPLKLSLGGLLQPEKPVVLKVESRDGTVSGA", "experiment": "Inhibition of CYP3A4 in human liver microsomes assessed as residual activity at 10 uM using midazolam as substrate preincubated for 5 mins followed by NADPH addition and measured after 15 mins by LC-MS/MS analysis relative to control", "assay_type": "ADME", "details": "probe midazolam, read-out: Activity"}, "CYP2C8": {"target": "T1, CYP2C8 (Homo sapiens, UniProt P10632)", "T1 sequence (P10632 whole entry)": "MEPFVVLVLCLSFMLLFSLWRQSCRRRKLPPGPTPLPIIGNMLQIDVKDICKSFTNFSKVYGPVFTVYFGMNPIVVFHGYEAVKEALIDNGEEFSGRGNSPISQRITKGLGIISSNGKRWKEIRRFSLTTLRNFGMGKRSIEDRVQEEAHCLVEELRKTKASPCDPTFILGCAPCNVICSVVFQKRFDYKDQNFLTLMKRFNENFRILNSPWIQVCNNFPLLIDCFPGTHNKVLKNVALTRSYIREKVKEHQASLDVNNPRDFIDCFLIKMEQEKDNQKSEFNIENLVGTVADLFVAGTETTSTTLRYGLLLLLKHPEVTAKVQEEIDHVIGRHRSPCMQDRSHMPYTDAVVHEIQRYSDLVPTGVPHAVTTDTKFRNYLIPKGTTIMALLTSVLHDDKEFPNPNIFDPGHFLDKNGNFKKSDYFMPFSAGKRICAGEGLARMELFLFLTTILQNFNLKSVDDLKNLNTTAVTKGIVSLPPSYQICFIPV", "experiment": "Inhibition of CYP2C8 in human liver microsomes assessed as residual activity at 10 uM using amiodiaquine as substrate preincubated for 5 mins followed by NADPH addition and measured after 15 mins by LC-MS/MS analysis relative to control", "assay_type": "ADME", "details": "probe amiodiaquine, read-out: Activity"}, "PC-9": {"test_system": "PC-9", "experiment": "Potency index, ratio of gefitinib IC50 to compound IC50 for antiproliferative activity against human PC9 cells harboring EGFR exon-19 del mutant", "assay_type": "functional"}, "[3]": {"experiment": "Selectivity index, ratio of IC50 for human C-terminal His6-tagged ERBB2 (676 to end residues) expressed in baculovirus infected sf21 cells to IC50 for human N-terminal GST-tagged EGFR T790M/L858R double mutant (696 to end residues) expressed in baculovirus infected sf21 cells"}, "CYP2C9": {"target": "CYP2C9 (Homo sapiens, UniProt P11712)", "sequence (P11712 whole entry)": "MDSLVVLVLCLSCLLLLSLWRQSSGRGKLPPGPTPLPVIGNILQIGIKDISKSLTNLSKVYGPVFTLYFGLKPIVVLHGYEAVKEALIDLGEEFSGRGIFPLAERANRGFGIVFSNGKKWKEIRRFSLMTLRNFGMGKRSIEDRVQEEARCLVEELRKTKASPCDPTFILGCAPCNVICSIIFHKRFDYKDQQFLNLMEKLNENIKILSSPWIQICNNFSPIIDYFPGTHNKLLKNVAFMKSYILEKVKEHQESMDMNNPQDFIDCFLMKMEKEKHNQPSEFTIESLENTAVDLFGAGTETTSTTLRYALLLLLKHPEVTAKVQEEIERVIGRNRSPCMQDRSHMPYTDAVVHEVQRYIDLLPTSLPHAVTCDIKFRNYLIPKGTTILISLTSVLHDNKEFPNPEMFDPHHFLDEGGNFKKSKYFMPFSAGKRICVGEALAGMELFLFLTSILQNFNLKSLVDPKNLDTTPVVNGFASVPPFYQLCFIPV", "experiment": "Inhibition of CYP2C9 in human liver microsomes assessed as residual activity at 10 uM using tolbutamide as substrate preincubated for 5 mins followed by NADPH addition and measured after 15 mins by LC-MS/MS analysis relative to control", "assay_type": "ADME", "details": "probe tolbutamide, read-out: Activity"}, "NCI-H1975": {"test_system": "NCI-H1975", "experiment": "Antiproliferative activity against human NCI-H1975 cells harboring EGFR T790M/L858R double mutant after 72 hrs by EZ-Cytox assay", "assay_type": "functional, cell-based", "details": "NCI-H1975, 72 h"}},
  "data": [
    {"smiles": "C=CC(=O)Nc1cc2c(Nc3ccc(F)c(Cl)c3)ncnc2cc1OCc1cn(Cc2cccc(F)c2)nn1", "values": [
      {"measurement": "Ratio IC50", "setting": "[1]", "value": 17},
      {"measurement": "Ratio IC50", "setting": "[2]", "value": 3.5},
      {"measurement": "activity at 0.25 h, 10 µM", "setting": "CYP3A4", "value": 50.1, "unit": "%"},
      {"measurement": "activity at 0.25 h, 10 µM", "setting": "CYP2C8", "value": 35.6, "unit": "%"},
      {"measurement": "Ratio IC50", "setting": "PC-9", "value": 6.7},
      {"measurement": "Ratio IC50", "setting": "[3]", "value": 52},
      {"measurement": "activity at 0.25 h, 10 µM", "setting": "CYP2C9", "value": 11.8, "unit": "%"},
      {"measurement": "IC50", "setting": "NCI-H1975", "value": 505, "unit": "nM"}
    ]},
    {"smiles": "C=CC(=O)Nc1cc2c(Nc3ccc(F)c(Cl)c3)ncnc2cc1OCc1cn(Cc2ccc(F)cc2)nn1", "values": [
      {"measurement": "activity at 0.25 h, 10 µM", "setting": "CYP3A4", "value": 55.3, "unit": "%"},
      {"measurement": "activity at 0.25 h, 10 µM", "setting": "CYP2C8", "value": 36.4, "unit": "%"},
      {"measurement": "activity at 0.25 h, 10 µM", "setting": "CYP2C9", "value": 13.5, "unit": "%"},
      {"measurement": "IC50", "setting": "NCI-H1975", "value": 453, "unit": "nM"}
    ]},
    {"smiles": "C=CC(=O)Nc1cc2c(Nc3ccc(F)c(Cl)c3)ncnc2cc1OCc1cn(Cc2ccc(Cl)cc2)nn1", "values": [
      {"measurement": "activity at 0.25 h, 10 µM", "setting": "CYP3A4", "value": 77.6, "unit": "%"},
      {"measurement": "activity at 0.25 h, 10 µM", "setting": "CYP2C8", "value": 48.7, "unit": "%"},
      {"measurement": "activity at 0.25 h, 10 µM", "setting": "CYP2C9", "value": 16.3, "unit": "%"},
      {"measurement": "IC50", "setting": "NCI-H1975", "value": 304, "unit": "nM"}
    ]}
  ]
}
